{"source": "paper PMC8863071", "about": "“Functional Analysis of H^+-Pumping Membrane-Bound Pyrophosphatase, ADP-Glucose Synthase, and Pyruvate Phosphate Dikinase as Pyrophosphate Sources in Clostridium thermocellum” (Applied and Environmental Microbiology, 2022)", "target": "T1, ADP-glucose synthase (Ags; ags1 ags2) (Acetivibrio thermocellus, UniProt A3DK82)", "T1 construct": "gene glgC; both subunits co-expressed untagged from pTrc99a (pTK30) in E. coli BL21; cell extract", "T1 sequence (A3DK82 1-426)": "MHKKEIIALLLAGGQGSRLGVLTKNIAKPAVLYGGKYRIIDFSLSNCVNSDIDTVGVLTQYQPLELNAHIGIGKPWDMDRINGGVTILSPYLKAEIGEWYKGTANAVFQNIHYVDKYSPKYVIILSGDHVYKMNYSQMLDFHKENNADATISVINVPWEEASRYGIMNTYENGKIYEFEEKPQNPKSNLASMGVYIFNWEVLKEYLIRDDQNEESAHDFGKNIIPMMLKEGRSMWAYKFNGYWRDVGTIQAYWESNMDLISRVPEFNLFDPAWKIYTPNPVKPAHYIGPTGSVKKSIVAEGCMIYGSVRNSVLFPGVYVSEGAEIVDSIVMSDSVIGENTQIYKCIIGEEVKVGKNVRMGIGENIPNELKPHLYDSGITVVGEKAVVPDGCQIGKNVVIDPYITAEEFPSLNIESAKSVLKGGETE", "T1 sequence (A3DK83 1-373 partner)": "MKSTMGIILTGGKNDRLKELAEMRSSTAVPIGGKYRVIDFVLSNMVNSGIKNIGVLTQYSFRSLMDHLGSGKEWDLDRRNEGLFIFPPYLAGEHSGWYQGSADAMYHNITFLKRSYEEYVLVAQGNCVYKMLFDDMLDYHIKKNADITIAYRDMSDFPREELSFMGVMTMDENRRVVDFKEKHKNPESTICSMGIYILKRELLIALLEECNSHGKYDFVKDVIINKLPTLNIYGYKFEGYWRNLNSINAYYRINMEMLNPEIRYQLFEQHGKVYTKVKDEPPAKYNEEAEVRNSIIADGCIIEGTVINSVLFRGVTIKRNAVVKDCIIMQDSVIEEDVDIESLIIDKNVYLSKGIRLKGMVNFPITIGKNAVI", "assay": "coupled NADP+ assay, pyrophosphorolysis direction", "format": "biochemical", "conditions": "1 mM ADP-glucose, 1 mM PPi, 4 mM MgCl2, 2 mM fructose-1,6-bisphosphate, pH 7.5, 55°C"}
{"molecule": "Nc1ncnc2c1ncn2[C@@H]1O[C@H](COP(=O)(O)OP(=O)(O)O[C@H]2O[C@H](CO)[C@@H](O)[C@H](O)[C@H]2O)[C@@H](O)[C@H]1O", "note": "[ADP-glucose]", "values": [{"measurement": "coupled NADP+ assay, pyrophosphorolysis direction", "result": "the activity was found to be ADP-glucose dependent"}]}
